Experimental data: US20100168033A1, “UNACYLATED GHRELIN AS THERAPEUTIC AGENT IN THE TREATMENT OF METABOLIC DISORDERS” (ALIZE PHARMA SAS, priority 2007, published 2010)
Read-outs that look alike come from different tables or passages of the source. Non-standard residues stand in square brackets, D forms with d. No end group written: not given here.

Key:
[1] = test system: HIT-T15 β-cells; assay: Apoptosis in cytokine-treated HIT-T15 β-cells; format: cell-based, hamster; conditions: for cytokine-induced apoptosis: 24 h serum-free medium with IFN-γ/TNF-α/IL-1β, peptides 1, 10, 100 nM
Procedure: HIT-T15 β-cells were cultured for 24 h in serum-free medium, either alone or with IFN-γ/TNF-α/IL-1β. In both cell lines, apoptosis increased under cytokine treatment, with respect to serum starvation alone. […] UAG (14-1), the inverse sequence of UAG (1-14), was used as negative control, whereas UAG (1-28), was used as positive control in each experiment.

[2] = test system: HIT-T15 β-cells; format: cell-based; conditions: for increase of cell survival: serum-free conditions
Procedure: MTT experiments were also performed in hamster HIT-T15 β-cells, to test the survival effect of UAG (1-28) or its fragments UAG (1-14), UAG (1-18), UAG (1-5) and UAG (17-28) in serum deprived medium, either alone or with IFN-γ/TNF-α/IL-1β. As for the experiments performed on INS-1E β-cells, the peptides were tested at increasing concentrations, ranging from 0.1 nM to 100 nM.
The survival effect of UAG (6-13), UAG (8-13), UAG (8-12), UAG (8-11), UAG (9-12) and UAG (9-11) was assessed in cytokine-treated HIT-T15 β-cells.
The protective effects of peptides UAG (8-13) and UAG (8-12) were found similar to those of UAG (1-14) and UAG (1-18) A peptide made of the inverse sequence of UAG (1-14) and named UAG (14-1), was used as negative control for these experiments (FIG. 5A). […] These effects were however lower than those of UAG (6-13) (FIG. 5B).
UAG fragments with alanine (Ala) substitutions at different amino acid positions (6 to 13) were tested with regards to their survival effects in HIT-T15 hamster β-cells. The cells were cultured in serum deprived medium, either alone or with IFN-γ/TNF-α/IL-1β. The peptides were tested at the concentrations of 1 nM to 100 nM. […] Under treatment with cytokines, where cell survival was reduced by ≈18% with respect to serum starved conditions, all Ala substitutions, except those at positions 10 and 11, completely reversed cell death and brought the survival rate to levels that were even higher than those under serum-free conditions, at both 1 nM and 100 nM concentrations. These effects, were similar to those elicited by the original peptide UAG (6-13) (FIG. 11B).
Particularly, the best effect was exerted by Gly 6-UAG (6-13), whereas the lowest was seen using AcSer 6-UAG (6-13), AcSer 6-(D)Pro 7-UAG (6-13) (FIG. 12B).
(§1) Cell culture—Hamster HIT-T15 insulin-secreting β-cells were obtained and cultured as described (Refs. 14, 4). INS-1E rat β-cells were kindly provided by Prof. Claes B. Wollheim (University Medical Center, Geneva, Switzerland) and cultured as described (Refs. 14, 4). Cell culture reagents were from Invitrogen (Milano, Italy). Cytokines were from Biosource (Invitrogen, Italy).
(§2) Cell survival assay—Cell survival was assessed by 3-[4,5-dimethylthiazol-2-yl]-2,5 diphenyltetrazolium bromide (MTT) as described previously (Ref. 4). Cells were seeded on 96-well plates at a density of 5×10^3 cells/well. After treatments, cells were incubated with 1 mg/ml MTT for ≈1 h. The medium was aspirated, and the formazan product solubilized with 100 μl DMSO. Viability was assessed by spectrophotometry at 570 nm absorbance using a 96-well plate reader.

[3] = test system: UAG receptor on INS-1E pancreatic β-cells; assay: [125I-Tyr4]-UAG competition binding, INS-1E membranes; set-up: species or system rat; conditions: for binding to the UAG receptor: INS-1E cells
Procedure: (§3) The ability of the fragment UAG (6-13) to compete in a concentration-dependent manner with [^125I-Tyr^4]-UAG for HIT-T15 (FIG. 10A) and INS-1E (FIG. 10B) binding sites was assayed. As shown in FIGS. 10A and 10B, unlabelled UAG (1-28) and UAG (6-13) competed with a similar efficacy and in a concentration-dependent fashion with [^125I-Tyr^4]-UAG for such binding sites in both cell lines.
(§4) Binding assay—Membranes from hamster HIT-T15 and rat INS-1E to pancreatic β-cells were prepared and assayed for the presence of [^125I-Tyr^4]-UAG binding. The ability of UAG fragments to compete with the radioligand for such binding sites has been evaluated as previously described (Ref. 4). Data are presented as mean±S.E.M. of three independent experiments.

[4] = test system: UAG receptor on HIT-T15 pancreatic β-cells; assay: [125I-Tyr4]-UAG competition binding, HIT-T15 membranes; set-up: species or system hamster; conditions: for binding to the UAG receptor: HIT-T15 cells
Procedure: as §3, §4

[5] = test system: INS-1E β-cells; assay: MTT cell survival assay in INS-1E β-cells; format: cell-based, rat; conditions: peptides 0.1 nM to 100 nM
Procedure: The peptides were tested at increasing concentrations, ranging from 0.1 nM to 100 nM.
as §1, §2

[6] = test system: human pancreatic islets; assay: MTT cell survival assay in human pancreatic islets; format: cell-based; conditions: 1 nM to 100 nM
Procedure: The survival effect of UAG (1-14), UAG (1-18), UAG (1-5) and UAG (17-28), with respect to that of full length UAG (1-28), was assessed in human pancreatic islets by MTT. The peptides were tested in islet cells cultured in serum deprived medium, either alone or with IFN-γ/TNF-α/IL-1β (5 ng/ml each).
Human islet isolation—Human islets were obtained from pancreases of multiorgan donors as described (Ref. 4). Islet preparations with purity >70%, not suitable for transplantation, were provided by European Consortium for Islet Transplantation (ECIT) “Islets for Research Distribution Program,” Transplant Unit, Scientific Institute San Raffaele, Vita-Salute University, Milan. Islets (10,000) were cultured in CMRL (Invitrogen) with 10% FBS.
as §2

[7] = test system: Streptozotocin (STZ)-treated animals; assay: Streptozotocin (STZ)-treated neonatal rats, diabetes model; format: in vivo, rat; conditions: for animal survival rate: day 9 after STZ
From the text: Natural birth occurred 6-7 days later. […] Pups were left with their mothers.
Pancreas removal and treatment—After excision, pancreases were removed and weighed.

[8] = test system: ob/ob mice; assay: ob/ob mice, 4-week intraperitoneal pump infusion; format: in vivo, mouse
Procedure: Baseline tail vein plasma samples were collected from free-fed and 16 h fasted ob/ob mice 7 and 6 days before pump implantation into K2EDTA coated capillary tubes (Microvette CB300 K2E; Sarstedt, Germany). The animals were then separated into three groups with approximately equivalent weight ranges. Ten week old mice were anesthetized, and a filled Alzet 1004 pump was inserted, delivery portal first, into the peritoneal cavity. The musculoperitoneal and skin layers were then closed using interrupted sutures (Vicryl 5.0 FS-2 absorbable suture). Animals received pumps containing either saline, 10 mg/ml UAG, or 3.5 mg/mL UAG (6-13) (n=8 per group). Alzet 1004 pumps deliver […], and infused 30 μg of hUAG/animal/day (˜600 μg/kg/day) and 10 μg of UAG (6-13)/animal/day (˜200 μg/kg/day).
Blood samples (at 0900-1000) were obtained from fed and fasted animals at weeks 2 and 4 via the tail vein into EDTA Microvette tubes. Glucose levels in tail vein blood were measured directly using a glucometer. On the last day of treatment baseline (fasted) blood samples were taken.
For the experimental data illustrated in FIGS. 14A, 14B, 15 and 16, the animals were obtained from Charles River Laboratories (Maastricht, The Netherlands). Animals (B6.V-Lep^ob/J, Charles River Laboratories, Belgian colony) were received in our animal facilities at 8 weeks of age, and acclimatized in individual cages for 2 weeks before treatments began. They were maintained under standard 12:12 h light:dark conditions, 21° C., and were allowed free access to food and water. The animals were also handled daily to accustom them to the method used for blood collection. The peptides were dissolved in sterile, nonpyrogenic, 0.9% saline (Baxter BV, Utrecht, The Netherlands). D-glucose was obtained from Sigma-Aldrich Chemie BV (Zwijndrecht, The Netherlands), and was dissolved at 400 mg/ml in 0.9% saline. Alzet pumps (model 1004) were obtained from Charles River Laboratories (Maastricht, The Netherlands). Pumps were filled with 0.9% saline, UAG or UAG (6-13) solution under sterile conditions, and pre-incubated in 0.9% saline for at least 48 hours at 37° C. to initiate flow. Blood glucose levels were measured directly from tail vein incisions using a Freestyle mini glucometer and test strips (ART05214 Rev.A; Abbot, Amersfoort, The Netherlands). Plasma insulin levels were assayed by Ultra-sensitive mouse insulin ELISA (Cat. #10-1150-10; Mercodia, Sweden).

[9] = serum deprived medium with IFN-γ/TNF-α/IL-1β
[10] = serum deprived medium with IFN-γ/TNF-α/IL-1β (5 ng/ml each)

Substance: Glu-His-Gln-Arg-Val (EHQRV; printed: Glu-His-Gln-Arg-Val) [UAG (8-12)]
- cytokine-induced apoptosis [1]: some protective effect only at 100 nM

Substance: Gly-Pro-Glu-His-Gln-Arg-Val-Gln-NH2 (GPEHQRVQ-NH2; listed as Homo sapiens) [Gly 6-UAG (6-13)]
- cell survival (MTT) [2, 9]: best effect

Substance: UAG (1-13): UAG fragment named only in b93 as binding to the UAG receptor; no sequence listed (GSSFLSPEHQRVQ)
- binding to the UAG receptor [3]: recognized and bound to the UAG receptor
- binding to the UAG receptor [4]: recognized and bound to the UAG receptor

Substance: Ac-Ser-pro-Glu-His-Gln-Arg-Val-Gln-NH2 (Ac-S[dP]EHQRVQ-NH2; listed as Homo sapiens) [AcSer 6-(D)Pro 7-UAG (6-13)]
- cell survival (MTT) [2, 9]: lowest

Substance: His-Gln-Arg-Val (HQRV; listed as Homo sapiens) [UAG (9-12)]
- cell survival (MTT) [2, 9]: significantly increased cell survival at both the concentrations tested

Substance: ESKKPPAKLQPR [UAG (17-28)]
- cell survival (MTT) ([2]; serum deprived medium alone): no significant effect
- cell survival (MTT) [2, 9]: no significant effect
- cell survival (MTT) [5, 9]: reduced effect
- cell survival (MTT) ([5]; serum-free medium): reduced, although significant, survival action
- cell survival (MTT) ([6]; serum deprived medium alone): significantly increased survival of islet cells
- cell survival (MTT) [6, 10]: had no effect

Substance: Ac-Ser-Pro-Glu-His-Gln-Arg-Val-Gln-NH2 (Ac-SPEHQRVQ-NH2; listed as Homo sapiens) [AcSer 6-UAG (6-13)]
- cell survival (MTT) [2, 9]: lowest

Substance: SPEHQRVQ [UAG (6-13), Ser-Pro-Glu-His-Gln-Arg-val-Gln]
- increase of cell survival ([2]; peptide 1 nM): ≈ 18%
- increase of cell survival ([2]; peptide 100 nM): ≈ 30%
- animal survival rate ([7]; 30 nmol/l): ≈ 71%
- animal survival rate ([7]; 100 nmol/l): 89%
- reduction of plasma glucose vs. STZ group ([7]; day 70, 30 nmol/l): 31%
- reduction of plasma glucose vs. STZ group ([7]; day 70, 100 nmol/l): 14%
- plasma insulin levels ([7]; day 70, STZ-treated rats, UAG (6-13) at both concentrations): increasing insulin levels
- binding to the UAG receptor [3]: highest binding activity
- IC50 ([3]; INS-1E membranes, mean±S.E.M. of three experiments): 2.4 ± 0.3 nM
- suppressive effect on plasma glucose levels in fed animals ([8]; fed animals, relative to saline controls): 30-40%
- fed plasma glucose levels ([8]; fed animals, relative to saline controls, not statistically significant (RM-ANOVA)): consistent suppressive effect
- gonadal fat weight ([8]; over the period of treatment): did not cause an increase in gonadal fat weight
- decrease of gonadal fat pad weight relative to saline treated controls ([8]; period of treatment, trend p<0.06): approximately 7%
- binding to the UAG receptor [4]: highest binding activity
- IC50 ([4]; HIT-T15 membranes, mean±S.E.M. of three experiments): 3.8 ± 0.3 nM
- cytokine-induced apoptosis [1]: significantly reduced cytokine-induced apoptosis
- cell number and morphology ([1]; with respect to cytokine condition, data not shown): increased the number of cells, induced cell enlargement and small islets formation

Substance: Gly-Ser-Ser-Phe-Leu (GSSFL; listed as Homo sapiens) [UAG (1-5)]
- cell survival (MTT) [2, 9]: slightly increased cell survival
- cell survival (MTT) [5, 9]: reduced effect
- cell survival (MTT) ([5]; serum-free medium): reduced, although significant, survival action
- cell survival (MTT) ([6]; serum deprived medium alone): little, although significant survival action at 10 nM
- cell survival (MTT) [6, 10]: no cell protection

Substance: EHQRVQ [UAG (8-13)]
- cytokine-induced apoptosis [1]: significantly inhibited apoptosis at 10 and 100 nM

Substance: His-Gln-Arg [UAG (9-11)]
- cell survival (MTT) [2, 9]: no significant effect at both concentrations tested

Substance: Glu-His-Gln-Arg (EHQR; listed as Homo sapiens) [UAG (8-11)]
- cell survival (MTT) [2, 9]: significant survival effect only at 100 nM
